Reference: US20230271958A1, “SALT AND CRYSTAL FORM OF DIHYDROPYRIDO[2,3-d]PYRIMIDINE DERIVATE” (NANJING CHIA TAI TIANQING PHARMACEUTICAL CO., LTD., priority 2020, published 2023)

Experiment: Solid stability of crystal form A (chemical purity by HPLC)
Format: physicochemical
Details: for Purity (%) after placement (day 20): exposed to air for 20 d; for Purity (%) before placement (day 0): exposed to air
Method: Hot and humid conditions: temperature: 40° C., relative humidity: 75%, crystal form A was exposed to air for 20 d • b. High temperature conditions: temperature: 60° C., crystal form A was exposed to air for 20 d
The chemical purity of crystal form A was measured by HPLC.
Chromatographic column: ACE Excel 5 Super C18 (4.6×150 mm, 5 μm)
Detection wavelength: 230 nm, column temperature: 30° C., flow rate: 1.0 mL/min
Mobile phase: diammonium hydrogen phosphate (1.32 g) was weighed and dissolved in water (1000 mL), the solution was adjusted with phosphoric acid until the pH of the solution was 7.2, filtered, and used as A phase; and acetonitrile was used as B phase.

[1] = condition a: 40° C., relative humidity 75%

- Purity (%) after placement (day 20) [1]: 99.89%
- Purity (%) before placement (day 0) [1]: 99.84%
- Purity (%) after placement (day 20) (condition b: 60° C.): 99.88%
- Purity (%) before placement (day 0) (condition b: 60° C.): 99.84%
Compound: CC(C)NC[C@@H](C(=O)N1CCN(c2ncnc3c2[C@H](C)CC(=O)N3)[C@H]2C[C@H]21)c1ccc(Cl)cc1.O=C(O)/C=C/C(=O)O [crystal form A]
